Results taken from PubChem BioAssay AID2060896 (Molecular Pharmacology Branch, DTP, NCI, 2025).

Tested on: 941728-121-R-J1-PDC complex spheroid viability
Test: Anticancer human tumor 941728-121-R-J1-PDC patient-derived lung adenocarcinoma cell line growth inhibition [RAS]
Settings: for IC50: curve of first compound; for viability, T/C: stronger effect = lower value
Summary of the method: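 Multi-cell-type spheroids: tumor cells plus HUVEC endothelial cells and mesenchymal stem cells. RAS-pathway inhibitors were combined with targeted agents, each dosed in half-log steps down from clinical Cmax, or from 10 microM when Cmax was unknown.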

[1] = second compound 0.000949 µM, first compound 0.0316 µM
[2] = second compound 0.000949 µM, first compound 0.1 µM
[3] = second compound 0.000949 µM, first compound 0.316 µM
[4] = second compound 0.000949 µM, first compound 1 µM
[5] = second compound 0.000949 µM, first compound 3.16 µM
[6] = second compound 0.000949 µM, first compound 10 µM
[7] = second compound 0.003 µM, first compound 0.0316 µM
[8] = second compound 0.003 µM, first compound 0.1 µM
[9] = second compound 0.003 µM, first compound 0.316 µM
[10] = second compound 0.003 µM, first compound 1 µM
[11] = second compound 0.003 µM, first compound 3.16 µM
[12] = second compound 0.003 µM, first compound 10 µM
[13] = second compound 0.00949 µM, first compound 0.0316 µM
[14] = second compound 0.00949 µM, first compound 0.1 µM
[15] = second compound 0.00949 µM, first compound 0.316 µM
[16] = second compound 0.00949 µM, first compound 1 µM
[17] = second compound 0.00949 µM, first compound 3.16 µM
[18] = second compound 0.00949 µM, first compound 10 µM
[19] = second compound 0.03 µM, first compound 0.0316 µM
[20] = second compound 0.03 µM, first compound 0.1 µM
[21] = second compound 0.03 µM, first compound 0.316 µM
[22] = second compound 0.03 µM, first compound 1 µM
[23] = second compound 0.03 µM, first compound 3.16 µM
[24] = second compound 0.03 µM, first compound 10 µM
[25] = second compound 0.0949 µM, first compound 0.0316 µM
[26] = second compound 0.0949 µM, first compound 0.1 µM
[27] = second compound 0.0949 µM, first compound 0.316 µM
[28] = second compound 0.0949 µM, first compound 1 µM
[29] = second compound 0.0949 µM, first compound 3.16 µM
[30] = second compound 0.0949 µM, first compound 10 µM
[31] = second compound 0.3 µM, first compound 0.0316 µM
[32] = second compound 0.3 µM, first compound 0.1 µM
[33] = second compound 0.3 µM, first compound 0.316 µM
[34] = second compound 0.3 µM, first compound 1 µM
[35] = second compound 0.3 µM, first compound 3.16 µM
[36] = second compound 0.3 µM, first compound 10 µM
[37] = second compound 0.00316 µM, first compound 0.0316 µM
[38] = second compound 0.00316 µM, first compound 0.1 µM
[39] = second compound 0.00316 µM, first compound 0.316 µM
[40] = second compound 0.00316 µM, first compound 1 µM
[41] = second compound 0.00316 µM, first compound 3.16 µM
[42] = second compound 0.00316 µM, first compound 10 µM
[43] = second compound 0.01 µM, first compound 0.0316 µM
[44] = second compound 0.01 µM, first compound 0.1 µM
[45] = second compound 0.01 µM, first compound 0.316 µM
[46] = second compound 0.01 µM, first compound 1 µM
[47] = second compound 0.01 µM, first compound 3.16 µM
[48] = second compound 0.01 µM, first compound 10 µM
[49] = second compound 0.0316 µM, first compound 0.0316 µM
[50] = second compound 0.0316 µM, first compound 0.1 µM
[51] = second compound 0.0316 µM, first compound 0.316 µM
[52] = second compound 0.0316 µM, first compound 1 µM
[53] = second compound 0.0316 µM, first compound 3.16 µM
[54] = second compound 0.0316 µM, first compound 10 µM
[55] = second compound 0.1 µM, first compound 0.0316 µM
[56] = second compound 0.1 µM, first compound 0.1 µM
[57] = second compound 0.1 µM, first compound 0.316 µM
[58] = second compound 0.1 µM, first compound 1 µM
[59] = second compound 0.1 µM, first compound 3.16 µM
[60] = second compound 0.1 µM, first compound 10 µM
[61] = second compound 0.316 µM, first compound 0.0316 µM
[62] = second compound 0.316 µM, first compound 0.1 µM
[63] = second compound 0.316 µM, first compound 0.316 µM
[64] = second compound 0.316 µM, first compound 1 µM
[65] = second compound 0.316 µM, first compound 3.16 µM
[66] = second compound 0.316 µM, first compound 10 µM
[67] = second compound 1 µM, first compound 0.0316 µM
[68] = second compound 1 µM, first compound 0.1 µM
[69] = second compound 1 µM, first compound 0.316 µM
[70] = second compound 1 µM, first compound 1 µM
[71] = second compound 1 µM, first compound 3.16 µM
[72] = second compound 1 µM, first compound 10 µM
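Further: spheroids exposed to compounds for 7 days before readout.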
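Wherever viability, T/C is given: 100% = DMSO vehicle control viability.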

CC(C)NCC(C(=O)N1CCN(c2ncnc3c2C(C)CC3O)CC1)c1ccc(Cl)cc1 (stereo not drawn) + CCn1c(-c2cccnc2C(C)OC)c2c3cc(ccc31)N1CCOC(CC(NC(=O)C(C(C)C)N(C)C(=O)C3(F)CCN(C(=O)C#CC(C)(C)N(C)C)CC3)C(=O)N3CCCC(N3)C(=O)OCC(C)(C)C2)C1
IC50 (second compound 0.000949 µM): < 31.6 nM | IC50 (second compound 0.003 µM): < 31.6 nM | IC50 (second compound 0.00949 µM): < 31.6 nM | IC50 (second compound 0.03 µM): < 31.6 nM | IC50 (second compound 0.0949 µM): < 31.6 nM | IC50 (second compound 0.3 µM): < 31.6 nM | viability, T/C [1]: 25.4% | viability, T/C [2]: 23% | viability, T/C [3]: 17.7% | viability, T/C [4]: 18.8% | viability, T/C [5]: 14.5% | viability, T/C [6]: 7.61% | viability, T/C [7]: 23.5% | viability, T/C [8]: 21.9% | viability, T/C [9]: 18.5% | viability, T/C [10]: 18.1% | viability, T/C [11]: 14.7% | viability, T/C [12]: 9.24% | viability, T/C [13]: 23.1% | viability, T/C [14]: 15.8% | viability, T/C [15]: 22.4% | viability, T/C [16]: 17.5% | viability, T/C [17]: 13.2% | viability, T/C [18]: 9.76% | viability, T/C [19]: 22.8% | viability, T/C [20]: 22.1% | viability, T/C [21]: 19.3% | viability, T/C [22]: 17.7% | viability, T/C [23]: 12.9% | viability, T/C [24]: 10.9% | viability, T/C [25]: 21.1% | viability, T/C [26]: 21.2% | viability, T/C [27]: 20.7% | viability, T/C [28]: 17.8% | viability, T/C [29]: 11.9% | viability, T/C [30]: 10.9% | viability, T/C [31]: 24.7% | viability, T/C [32]: 22.9% | viability, T/C [33]: 18.9% | viability, T/C [34]: 17.1% | viability, T/C [35]: 13% | viability, T/C [36]: 11.2%

CCC(CC)c1cc(NC2CCC(N)C2)n2nccc2n1 (stereo not drawn) + C=CC(=O)N1CCN(c2nc(OCC3CCCN3C)nc3c(F)c(-c4nc(N)cc(C)c4C(F)(F)F)c(Cl)cc23)C(C)C1
IC50 (second compound 0.00316 µM): < 31.6 nM | IC50 (second compound 0.01 µM): < 31.6 nM | IC50 (second compound 0.0316 µM): < 31.6 nM | IC50 (second compound 0.1 µM): < 31.6 nM | IC50 (second compound 0.316 µM): < 31.6 nM | IC50 (second compound 1 µM): < 31.6 nM | viability, T/C [37]: 19.6% | viability, T/C [38]: 18.1% | viability, T/C [39]: 20.3% | viability, T/C [40]: 27.2% | viability, T/C [41]: 13.7% | viability, T/C [42]: 29.1% | viability, T/C [43]: 20.1% | viability, T/C [44]: 19.9% | viability, T/C [45]: 21.8% | viability, T/C [46]: 28.4% | viability, T/C [47]: 13.3% | viability, T/C [48]: 25% | viability, T/C [49]: 20% | viability, T/C [50]: 24.5% | viability, T/C [51]: 23.5% | viability, T/C [52]: 27.3% | viability, T/C [53]: 13.7% | viability, T/C [54]: 25.9% | viability, T/C [55]: 19.7% | viability, T/C [56]: 18.3% | viability, T/C [57]: 23.4% | viability, T/C [58]: 27.3% | viability, T/C [59]: 16.6% | viability, T/C [60]: 25.9% | viability, T/C [61]: 19.1% | viability, T/C [62]: 21.6% | viability, T/C [63]: 21.5% | viability, T/C [64]: 26% | viability, T/C [65]: 14.9% | viability, T/C [66]: 26.1% | viability, T/C [67]: 20.6% | viability, T/C [68]: 21.2% | viability, T/C [69]: 22.6% | viability, T/C [70]: 30.2% | viability, T/C [71]: 16.8% | viability, T/C [72]: 32.5%

CC(Nc1ccc2c(c1)OCCn1cc(N3C(=O)OCC3C(F)F)nc1-2)C(N)=O (stereo not drawn) + CCn1c(-c2cc(N3CCN(C)CC3)cnc2C(C)OC)c2c3cc(ccc31)-c1csc(n1)CC(NC(=O)C1CC1C)C(=O)N1CCCC(N1)C(=O)OCC(C)(C)C2
IC50 (second compound 0.000949 µM): < 31.6 nM | IC50 (second compound 0.003 µM): < 31.6 nM | IC50 (second compound 0.00949 µM): < 31.6 nM | IC50 (second compound 0.03 µM): < 31.6 nM | IC50 (second compound 0.0949 µM): < 31.6 nM | IC50 (second compound 0.3 µM): < 31.6 nM | viability, T/C [1]: 26% | viability, T/C [2]: 23.3% | viability, T/C [3]: 18.9% | viability, T/C [4]: 21.3% | viability, T/C [5]: 20.5% | viability, T/C [6]: 12.1% | viability, T/C [7]: 19.4% | viability, T/C [8]: 15.9% | viability, T/C [9]: 13.4% | viability, T/C [10]: 14.2% | viability, T/C [11]: 11.7% | viability, T/C [12]: 7.42% | viability, T/C [13]: 14.2% | viability, T/C [14]: 10.3% | viability, T/C [15]: 11.2% | viability, T/C [16]: 9.14% | viability, T/C [17]: 7.89% | viability, T/C [18]: 5.97% | viability, T/C [19]: 12.3% | viability, T/C [20]: 10.6% | viability, T/C [21]: 10.1% | viability, T/C [22]: 8.95% | viability, T/C [23]: 11.8% | viability, T/C [24]: 6.96% | viability, T/C [25]: 11.5% | viability, T/C [26]: 8.85% | viability, T/C [27]: 9.23% | viability, T/C [28]: 8.74% | viability, T/C [29]: 7.5% | viability, T/C [30]: 6.53% | viability, T/C [31]: 11.4% | viability, T/C [32]: 9.97% | viability, T/C [33]: 9.41% | viability, T/C [34]: 6.86% | viability, T/C [35]: 6.29% | viability, T/C [36]: 6.96%

CC(=O)OC12COC1CC(O)C1(C)C(=O)C(O)C3=C(C)C(OC(=O)C(O)C(NC(=O)OC(C)(C)C)c4ccccc4)CC(O)(C(OC(=O)c4ccccc4)C21)C3(C)C (stereo not drawn) + C=CC(=O)N1CCN(c2nc(OCC3CCCN3C)nc3c(F)c(-c4nc(N)cc(C)c4C(F)(F)F)c(Cl)cc23)C(C)C1
IC50 (second compound 0.00316 µM): < 31.6 nM | IC50 (second compound 0.01 µM): < 31.6 nM | IC50 (second compound 0.0316 µM): < 31.6 nM | IC50 (second compound 0.1 µM): < 31.6 nM | IC50 (second compound 0.316 µM): < 31.6 nM | IC50 (second compound 1 µM): < 31.6 nM | viability, T/C [37]: 15.8% | viability, T/C [38]: 13.3% | viability, T/C [39]: 13.2% | viability, T/C [40]: 12.3% | viability, T/C [41]: 13.6% | viability, T/C [42]: 20.4% | viability, T/C [43]: 15.8% | viability, T/C [44]: 10.3% | viability, T/C [45]: 12.7% | viability, T/C [46]: 12.2% | viability, T/C [47]: 12.1% | viability, T/C [48]: 12.1% | viability, T/C [49]: 14.4% | viability, T/C [50]: 14.1% | viability, T/C [51]: 11% | viability, T/C [52]: 12.8% | viability, T/C [53]: 13.1% | viability, T/C [54]: 12.2% | viability, T/C [55]: 14.1% | viability, T/C [56]: 15.6% | viability, T/C [57]: 12% | viability, T/C [58]: 13.8% | viability, T/C [59]: 13.8% | viability, T/C [60]: 12.6% | viability, T/C [61]: 13.5% | viability, T/C [62]: 13% | viability, T/C [63]: 14.1% | viability, T/C [64]: 13.8% | viability, T/C [65]: 13.1% | viability, T/C [66]: 16.2% | viability, T/C [67]: 14.7% | viability, T/C [68]: 13.5% | viability, T/C [69]: 12.6% | viability, T/C [70]: 14.6% | viability, T/C [71]: 14% | viability, T/C [72]: 14.5%
